In this test the target is Trx-A-NMt-PCP (module 2 of the Sas17 NRPS protein) (Streptomyces calvus, UniProt A0A514JVM2). The conditions noted are these: NMt domain; methyl donor for PCP-bound Tyr; 5 mM SAM, 1 h.

Structures are written as SMILES.

Trx-A-NMt-PCP (module 2 of the Sas17 NRPS protein), sequence (A0A514JVM2 1553-2567): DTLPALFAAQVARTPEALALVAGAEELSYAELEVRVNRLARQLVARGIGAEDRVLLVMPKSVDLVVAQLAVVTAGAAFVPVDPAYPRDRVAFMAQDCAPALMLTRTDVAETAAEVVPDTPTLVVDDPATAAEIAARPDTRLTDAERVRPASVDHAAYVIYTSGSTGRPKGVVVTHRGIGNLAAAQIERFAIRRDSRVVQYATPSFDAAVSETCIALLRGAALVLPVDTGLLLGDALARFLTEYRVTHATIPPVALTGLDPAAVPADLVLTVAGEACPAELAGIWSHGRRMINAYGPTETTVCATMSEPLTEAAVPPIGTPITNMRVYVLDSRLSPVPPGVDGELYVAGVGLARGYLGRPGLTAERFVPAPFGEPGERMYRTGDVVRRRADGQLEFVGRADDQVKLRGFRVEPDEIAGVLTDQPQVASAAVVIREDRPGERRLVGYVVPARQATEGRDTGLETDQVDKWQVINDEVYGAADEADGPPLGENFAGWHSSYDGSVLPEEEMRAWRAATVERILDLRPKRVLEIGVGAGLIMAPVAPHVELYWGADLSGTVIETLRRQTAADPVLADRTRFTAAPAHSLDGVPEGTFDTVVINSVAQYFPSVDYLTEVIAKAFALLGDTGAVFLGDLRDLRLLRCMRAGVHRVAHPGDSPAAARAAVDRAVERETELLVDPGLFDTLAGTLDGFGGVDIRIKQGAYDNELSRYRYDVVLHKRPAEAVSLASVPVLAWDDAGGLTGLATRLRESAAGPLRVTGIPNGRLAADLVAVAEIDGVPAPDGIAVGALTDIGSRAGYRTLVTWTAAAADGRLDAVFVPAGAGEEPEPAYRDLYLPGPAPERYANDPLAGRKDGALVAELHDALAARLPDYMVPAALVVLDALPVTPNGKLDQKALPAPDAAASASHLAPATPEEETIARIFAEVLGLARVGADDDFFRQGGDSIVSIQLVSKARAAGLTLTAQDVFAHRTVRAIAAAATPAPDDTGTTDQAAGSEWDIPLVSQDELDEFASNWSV

Turning to `C[S+](CC[C@H](N)C(=O)O)C[C@H]1O[C@@H](n2cnc3c(N)ncnc32)[C@H](O)[C@@H]1O` (stereo partly shown) [SAM], the “LC-MS of methylamine-cleaved PCP thioester” value is on record as “Reconstitution of the Mt domain using SAM then led to the methylation of the PCP-bound”.
